Here are results for one molecule from patent publication US20220218801A1, “COMBINATION GMCI AND ATRI CANCER TREATMENT” (Candel Therapeutics, Inc., priority 2019, published 2022).

Experiment [1] deals with glioma cell line (GL261). The experiment is described as follows: glioma cell viability assay (Presto Blue, fluorescence). It counts as cell-based. The protocol: The combination of GMCI and ATRi (AZD6738) is examined for anti-cancer activity. A schematic of an experimental design to test the effect of combining of GMCI and ATR inhibitor combination on glioma cells is illustrated in FIG. 1. At the start of the study (Day 0), a glioma cell line (GL261; NCI-Frederick Cancer Research Tumor Repository, Frederick, Md.) is plated at a density of 5000 cells per well. For the samples on which GMCI is administered, on the following day (Day 1) AdV-tk vector is added at a concentration of approximately […] (100 MOI). Starting on Day 2, to the samples being treated with GMCI, ganciclovir is added to a concentration of 5 μg/ml. […] At Day 4, cell viability is assayed by the addition of a vial dye such as Presto Blue assay (Life Technologies) and quantified by fluorescence spectrometry.
Synergism was analyzed by the Combination Index (CI) calculation with the formula of Chou-Talalay (Chou 2010; Ting-Chao Chou 1984). CI values above 1.00 indicate antagonistic effect of combination agents, a CI of 1.00 indicates an additive effect, and CI values below 1.00 indicate synergistic effect.

The subject of experiment [2] is glioma cell line (GL261). Nature of the experiment: double-stranded DNA breaks by H2AX Ser139 staining (confocal microscopy). It counts as cell-based. To be noted: 6 hours after addition of ATRi (IC50 concentration) and/or GCV 5 μg/ml, compared with untreated cells. The protocol: In another experiment, the frequency of double-stranded DNA breaks in glioma cells treated with GMCI, ATRi, or the combination. The formation of double-stranded DNA breaks was examined by staining the cells for H2AX-Ser139 as previously performed (Speranza et al. 2017).
At the start of the study (Day 0), glioma cell line (GL261; NCI-Frederick Cancer Research Tumor Repository, Frederick, Md.) is plated at a density of 12,500 cells per well of a 24 well plate containing glass coverslips. For the samples to which GMCI is administered, AdV-tk vector is added at a concentration of approximately 1.25×10^6 vp/ml (100 MOI). Starting on Day 1, to the samples being treated with GMCI, ganciclovir is added to a concentration of 5 μg/ml. In samples exposed to ATRi, starting at Day 1 AZD6738 was added at a concentration to the IC50 concentration of the drug. either in combination with GMCI or alone, as indicated. At a timepoint 6 hours after addition of the ATRi and/or GCV, the cells were fixed in 4% paraformaldehyde in phosphate buffered saline. After blocking with 5% donkey serum/0.5% Tween 20, 0.02% TX100/PBS for 1 hour at room temperature (RT), cells were washed 3 times with washing buffer (0.5% Tween 20, 0.02% TX100/PBS) and stained with H2AX Ser139 antibody (1:100). The next day the samples were washed and incubated for 2 hours with a fluorescently-tagged secondary antibody plus Hoechst 33342. […]

As to `C[C@@H]1COCCN1c1cc(C2([S@](C)(=N)=O)CC2)nc(-c2cc[nH]c3nccc2-3)n1` [AZD6738], the “cell viability (fluorescence normalized to no treatment)” value in experiment [1] (GL261, single agents, AZD6738 at IC50 (1 μM) or ½ IC50 (0.5 μM) from Day 2, GMCI = AdV-tk 100 MOI + ganciclovir 5 μg/ml, read at Day 4) is recorded as “cytotoxic activity”. Further, the IC50 in experiment [1] (Mus musculus, GL261 glioma cells, read-out: IC50 concentration) amounted to 1000 nM. In addition, the “double-stranded DNA breaks / H2AX(Ser139) staining” value is recorded as “Double-stranded DNA breaks occur” in experiment [2] and “large increase in H2AX staining” in experiment [2] (listed as ATRi).
